Assay results taken from paper PMC4503454, “A Lead-In with Silibinin Prior to Triple-Therapy Translates into Favorable Treatment Outcomes in Difficult-To-Treat HIV/Hepatitis C Coinfected Patients” (PLoS ONE, 2015).

What was measured:
[1] = Antiretroviral plasma trough levels before and during silibinin; format: in vivo, human
Method: Plasma samples obtained from HIV-HCV infected individuals were isolated by immediate centrifugation at 1850 X g (3000 rpm) and stored at -80°C. For the plasma quantification of antiretroviral drugs, samples were inactivated for virus at 60°C for 60 minutes. Plasma levels were determined by liquid chromatography coupled with tandem mass spectrometry (LC-MS/MS) after protein precipitation with acetonitrile according to our previously reported validated analytical method. The laboratory participates in an international external quality assurance program for antiretroviral drugs analysis (KKGT, Stichting Kwaliteitsbewaking Klinische Geneesmiddelanalyse en Toxicologie, Association for Quality Assessment in TDM and clinical Toxicology, The Hague, The Netherlands). Plasma trough levels for raltegravir (RAL), darunavir (DRV), atazanavir (ATV), and etravirine (ETV) were graphically extrapolated from measured concentrations, using population pharmacokinetic models previously published. Reference values for efavirenz (EFV) were adopted from a study from Marzolini et al.. The median trough concentrations for these agents in HIV-infected persons receiving the recommended dose are taken from the guidelines for the use of antiretroviral agents in HIV-1 infected adults and adolescents.
We used an intention-to-continue treatment approach to calculate virologic responses as percentage of patients with undetectable HCV-RNA, using all patients who started treatment as denominator. Plasma concentrations are presented as median (range). Two-tailed paired t-tests were conducted to detect difference in trough levels of antiretroviral drugs between pre- and post-administration of silibinin. GraphPad Prism 6 (GraphPad Software, La Jolla, CA) was used with an alpha of 0.05.

[2] = parameters: species or system human; settings: in vivo; for Median Cmax (Range): human, iv, 20 mg/kg/day
Method: To measure silibinin plasma concentration, the plasma concentrations of silibinin isomers (A and B) and silibinin dihydrogen succinate isomers (A and B) were determined by LC/MS-MS. Of note, the range of plasma concentrations of the LC-MS/MS assay was selected according to the levels reported in the study from Sala et al. Briefly, 100 μl of plasma was added to 20 μl of internal standard naringenin (IS) and extracted by protein precipitation. After evaporation and reconstitution, 20 μL was injected into a Select- HSS T3 (2.1x75 mm, 3.5 μm) (Waters, Milford, MA, USA).
Chromatographic separations were performed using a gradient program with 10 mM ammonium formate containing 0.1% formic acid and acetonitrile with 0.1% formic acid. Analytes were quantified by electrospray ionization-triple quadrupole mass spectrometry using the selected reaction monitoring detection in the negative mode. Importantly, the selected gradient program allows adequate separation to quantify isomers A and B individually. The method has a mean inter-day coefficient of variation (CV) % of <10% and an inter-day deviation from nominal values of <7%.
Of note, the Cmin of isomer A of both silibinin dihydrogen succinate and silibinin were 2- and 7-fold higher than the corresponding values of isomer B [20].

[3] = plasma, paired t-test, ATV/r p = 0.89, RAL p = 0.90, ETV, EFV, DRV/r p = 0.14

Compound	trough level under silibinin coadministration (day 1 vs day 12) [1, 3]	other results
O=C1Nc2ccc(Cl)cc2[C@@](C#CC2CC2)(C(F)(F)F)O1 [EFV, efavirenz]	–	trough level under silibinin coadministration (day 1 vs day 12) ([1]; in vivo): not influenced
Cc1cc(C#N)cc(C)c1Oc1nc(Nc2ccc(C#N)cc2)nc(N)c1Br [ETV, etravirine]	not influenced	–
Cc1nnc(C(=O)NC(C)(C)c2nc(C(=O)NCc3ccc(F)cc3)c(O)c(=O)n2C)o1 [RAL, raltegravir]	not influenced	–
COc1cc([C@H]2Oc3cc([C@H]4Oc5cc(O)cc(O)c5C(=O)[C@@H]4O)ccc3O[C@@H]2CO)ccc1O [Silibinin A]	–	Median Cmax (Range) [2]: 0.62 (0.29–1.07) μg/mL; Cmin of isomer A relative to isomer B [2]: 7 fold
COc1cc(C2Oc3cc(C4Oc5cc(O)cc(O)c5C(=O)C4O)ccc3OC2CO)ccc1O (centres unmarked) [Silibinin B]	–	Median Cmax (Range) [2]: 0.25 (0.08–0.78) μg/mL
atazanavir/ritonavir [ATV/r]	not influenced	–
darunavir/ritonavir [DRV/r]	not influenced	–
